Data from ChEMBL document CHEMBL1250444, “Nitric oxide activates TRP channels by cysteine S-nitrosylation” (Nat Chem Biol, 2006).
Calls of active or inactive are those of the source. The rule behind the calls is not given here.

Tests used:
BAEC [1] = assay: Inhibition of NO production in BAEC assessed as inhibition of Ca2+ influx at 10 mM; type: functional, cell-based; conditions: Bos taurus
[2] = target: T1, Short transient receptor potential channel 5 (Homo sapiens) (UniProt Q9UL62); assay: Induction of S-nitrosylation of TRPC5 in HEK cells assessed as increase in Ca2+ level from extracellular space at 50 uM; type: cell-based; conditions: HEK293
T1 sequence (whole entry): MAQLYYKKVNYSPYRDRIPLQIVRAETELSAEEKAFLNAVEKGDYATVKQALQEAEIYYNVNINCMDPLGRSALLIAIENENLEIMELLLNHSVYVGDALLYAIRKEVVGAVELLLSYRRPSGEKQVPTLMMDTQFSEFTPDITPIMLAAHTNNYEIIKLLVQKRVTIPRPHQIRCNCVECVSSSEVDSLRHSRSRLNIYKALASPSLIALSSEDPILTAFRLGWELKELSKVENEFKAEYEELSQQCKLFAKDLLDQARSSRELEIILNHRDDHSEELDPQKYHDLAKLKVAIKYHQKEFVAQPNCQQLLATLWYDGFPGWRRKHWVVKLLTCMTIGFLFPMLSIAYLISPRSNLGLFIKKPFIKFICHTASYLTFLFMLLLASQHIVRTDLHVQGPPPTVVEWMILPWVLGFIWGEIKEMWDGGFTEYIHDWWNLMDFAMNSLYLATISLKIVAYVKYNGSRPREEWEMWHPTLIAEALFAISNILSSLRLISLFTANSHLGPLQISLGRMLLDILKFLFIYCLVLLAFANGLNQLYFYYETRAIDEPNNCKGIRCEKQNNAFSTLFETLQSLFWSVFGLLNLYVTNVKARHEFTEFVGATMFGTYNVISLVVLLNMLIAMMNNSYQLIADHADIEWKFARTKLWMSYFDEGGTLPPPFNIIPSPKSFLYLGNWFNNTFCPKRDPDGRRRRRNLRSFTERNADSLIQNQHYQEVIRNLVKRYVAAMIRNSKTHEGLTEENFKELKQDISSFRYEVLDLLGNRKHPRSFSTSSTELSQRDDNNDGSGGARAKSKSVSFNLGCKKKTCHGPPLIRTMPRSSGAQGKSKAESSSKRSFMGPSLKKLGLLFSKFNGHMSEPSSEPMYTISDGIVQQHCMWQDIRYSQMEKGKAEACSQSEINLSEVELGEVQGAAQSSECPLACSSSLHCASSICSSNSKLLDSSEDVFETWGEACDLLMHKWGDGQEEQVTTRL

BAEC [3] = assay: Inhibition of NO production in BAEC assessed as inhibition of Ca2+ influx at 1 mM; type: functional, cell-based; conditions: Bos taurus
BAEC [4] = assay: Inhibition of NO production in BAEC at 300 uM; type: functional, cell-based; conditions: Bos taurus
BAEC [5] = assay: Inhibition of NO production in BAEC assessed as inhibition of Ca2+ influx at 300 uM; type: functional, cell-based; conditions: Bos taurus
[6] = target: T1, Short transient receptor potential channel 5 (Homo sapiens); assay: Induction of S-nitrosylation of TRPC5 in HEK cells assessed as increase in Ca2+ level from extracellular space at 10 uM; type: cell-based; conditions: HEK293
[7] = target: T1, Short transient receptor potential channel 5 (Homo sapiens); assay: Induction of S-nitrosylation of TRPC5 in HEK cells assessed as increase in Ca2+ level from extracellular space at 5 mM; type: cell-based; conditions: HEK293
[8] = target: T1, Short transient receptor potential channel 5 (Homo sapiens); assay: Induction of S-nitrosylation of TRPC5 in HEK cells assessed as increase in Ca2+ level from extracellular space at 1 mM; type: cell-based; conditions: HEK293
[9] = target: T1, Short transient receptor potential channel 5 (Homo sapiens); assay: Induction of S-nitrosylation of TRPC5 in HEK cells assessed as increase in Ca2+ level from extracellular space at 5 mM extracellular administration; type: cell-based; conditions: HEK293
[10] = target: T1, Short transient receptor potential channel 5 (Homo sapiens); assay: Induction of S-nitrosylation of TRPC5 in HEK cells assessed as inhibition of incorporation of DTNB-2Bio at 30 uM; type: cell-based; conditions: HEK293
DT40 = assay: Induction of P2Y mediated TRPC5 S-nitrosylation in chicken DT40 cells assessed as increase in Ca2+ level from extracellular space at 100 uM in presence of PLC-beta inhibitor U73122; type: cell-based

With `CC(=O)N[C@@H](CS)C(=O)O` the inhibition (BAEC [1]) was “Active”.
For `c1cc(SSc2ccncc2)ccn1`, the Activity [2] was “Active”.
`O=C1O[C@H]([C@@H](O)CO)C(O)=C1O` was tested, and the inhibition (BAEC [3]) was “Active”.
`COC(=O)[C@@H](N)CCCNC(=N)N[N+](=O)[O-]` was tested, and the inhibition (BAEC [4]) was “Active” and the inhibition (BAEC [5]) was “Active”.
In the case of `O=c1onc2cnc3ccccc3n12`, the Activity [6] is reported as “inactive”.
With `CC/C(=C\C(=N\O)C(N)=O)C(C)[N+](=O)[O-]` (racemic) the Activity [7] was “Active”.
For `O=C(O)c1cc(SSc2ccc([N+](=O)[O-])c(C(=O)O)c2)ccc1[N+](=O)[O-]`, the Activity [2] was “Active”.
In the case of `[NH-]c1c[n+](N2CCOCC2)no1`, the Activity [8] is reported as “Active”.
`CS(=O)(=O)SCCN` was tested, and the Activity [9] was “Active”.
For `C[N+](C)(C)CCSS(C)(=O)=O`, the Activity [9] was “inactive”.
With `O=C(CCCC[C@@H]1SC[C@@H]2NC(=O)N[C@@H]21)NCCCCCNC(=O)c1cc(SSc2ccc([N+](=O)[O-])c(C(=O)NCCCCCNC(=O)CCCC[C@@H]3SC[C@@H]4NC(=O)N[C@@H]43)c2)ccc1[N+](=O)[O-]` the Activity [10] was “Active”.
For `Nc1ncnc2c1ncn2[C@@H]1O[C@H](COP(=O)(O)OP(=O)(O)OP(=O)(O)O)[C@@H](O)[C@H]1O`, the Activity (DT40) was “inactive”.
